Assay results from patent US5501957A, “Method for measuring glycosyltransferase activity” (priority 1994, dated 1996).
“And” between values parts separate entries of the source, which are not always exact repeats. Equal entries are not always repeated. “Also recorded” adds a separate entry of the source. Where two headings read alike, the source gives them in different places.

Tests used:
core 2 GlcNAc-T [1] = tested on: core 2 GlcNAc-T
CHO cells [2] = assay: Proliferation (doubling time) of CHO cells in the presence of differentiation agents; format: cell-based, Chinese hamster
CHO cells [3] = assay: Cell morphology of CHO cells; format: cell-based, Chinese hamster
core 2 GlcNAc-T [4] = molecular target: T1, core 2 GlcNAc-T (Cricetulus griseus, UniProt A0A9J7GWB2); assay: Kinetic analysis of core 2 GlcNAc-T activity in CHO cell lysates; format: biochemical, Chinese hamster; settings: butyrate+cholera toxin-treated versus untreated CHO cells
T1 construct: The lysates were adjusted to 8-12 μg/μl protein with lysis solution and used as the source of transferases; endogenous in cells; host or cells: CHO cells (untreated or treated with differentiating agents), detergent lysate; in A6 freeze-thawed cells, pelleted membranes
T1 sequence (A0A9J7GWB2 1-428): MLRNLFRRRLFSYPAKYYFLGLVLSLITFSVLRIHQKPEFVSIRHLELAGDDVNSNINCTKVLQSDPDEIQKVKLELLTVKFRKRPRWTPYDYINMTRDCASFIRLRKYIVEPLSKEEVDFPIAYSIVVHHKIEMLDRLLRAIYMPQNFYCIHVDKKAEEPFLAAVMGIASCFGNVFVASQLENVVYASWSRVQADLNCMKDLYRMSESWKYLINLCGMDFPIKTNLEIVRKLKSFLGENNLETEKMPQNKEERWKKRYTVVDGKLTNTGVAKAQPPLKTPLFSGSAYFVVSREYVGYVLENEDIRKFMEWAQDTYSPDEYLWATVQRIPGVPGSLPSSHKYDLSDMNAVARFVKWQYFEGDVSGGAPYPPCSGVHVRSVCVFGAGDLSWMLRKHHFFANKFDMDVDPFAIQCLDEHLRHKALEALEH

core 2 GlcNAc-T [5] = assay: Substrate Km for core 2 GlcNAc-T found in CHO and MDAY-D2 cell lysates; format: biochemical, Chinese hamster; murine
core 2 GlcNAc-T [6] = settings: CHO and MDAY-D2 cell lysates; Yousefi et al (1991); cited from earlier work
bovine β1-4Gal-T = assay: Kinetics of the β1-4Gal-T reaction; format: biochemical; settings: 1 mU Gal-T, 5 min at 30° C.
[7] = tested on: Ca^++ -dependent protein kinases; settings: cell-free assays; Hidaka et al, 1984; cited from earlier work
[8] = tested on: cAMP-dependent protein kinases; settings: cell-free assays; Hidaka et al, 1984; cited from earlier work
[9] = 2 hour incubation, lysates from control or butyrate+cholera toxin-treated cells
cAMP = format: cell-based, Chinese hamster
core 2 GlcNAc-T [10] = format: biochemical, Chinese hamster
in vitro = settings: hamster, cho cells
[11] = 1 μM actinomycin D, 5 μg/ml cycloheximide, 50 μM kinase inhibitors

## Nc1ncnc2c1nc(Br)n2[C@@H]1O[C@@H]2COP(=O)(O)O[C@H]2[C@H]1O [8-bromo-cAMP]
Core 2 GlcNAc-T [1]
  effect on core 2 GlcNAc-T activity in CHO cells (in words): failed to induce enzyme activity

## C[S+](C)[O-] [DMSO, dimethylsulfoxide]
CHO cells [2]
  Doubling Time: 25 to 27 h
  effect on cell proliferation (in words): reductions in cell growth rates
CHO cells [2]; average slopes of growth curves over 72 hours
  Doubling Time: 25 h
CHO cells [2]; listed as dimethylsulfoxide
  effect on cell proliferation (in words): slowed cell proliferation
CHO cells [3]
  changes in cell morphology (in words): changes in cell morphology
CHO cells [3]; listed as dimethylsulfoxide
  changes in cell morphology (in words): induced changes in cell morphology
Core 2 GlcNAc-T [1]; 24 h treatment
  Core 2 GlcNAc-T activity: 9.6 pmol/mg/h
Core 2 GlcNAc-T [1]; 48 h treatment
  Core 2 GlcNAc-T activity: 11.2 pmol/mg/h
Core 2 GlcNAc-T [1]; 72 h treatment
  Core 2 GlcNAc-T activity: 9.5 pmol/mg/h
β1-3Gal-T; 24 h treatment
  B-1 Gal-T activity: 9.1 nmoles/m/h
β1-3Gal-T; 48 h treatment
  B-1 Gal-T activity: 8.1 nmoles/m/h
β1-3Gal-T; 72 h treatment
  B-1 Gal-T activity: 5.6 nmoles/m/h

## CC(=O)N[C@H]1[C@@H](Oc2ccc([N+](=O)[O-])cc2)O[C@H](CO)[C@H](O)[C@@H]1O[C@@H]1O[C@H](CO)[C@H](O)[C@H](O)[C@H]1O [Galβ1-3GalNAcα-pNp]
Core 2 GlcNAc-T [4]
  change in Km for the synthetic acceptor (in words): no changes in Km
Core 2 GlcNAc-T [5]
  fold by which substrate Km for β1-4Gal-T is lower than for core 2 GlcNAc-T: 5 fold
Core 2 GlcNAc-T [6]
  Km: 300 µM

## COC(=O)CCCCCCCCO[C@@H]1O[C@H](CO[C@H]2O[C@H](CO)[C@@H](O)[C@H](O)[C@@H]2O[C@@H]2O[C@H](CO)[C@@H](O)[C@H](O)[C@H]2NC(C)=O)[C@@H](O)[C@H](O)[C@@H]1O [GlcNAcβ1-2Manα1-6Manβ--O--(CH2)8 --COOCH3]
Bovine β1-4Gal-T
  Km: 45 µM

## CC1CNCCN1S(=O)(=O)c1cccc2cnccc12 (centres unmarked) [H-7]
Core 2 GlcNAc-T [1]; [11]
  effect on induction of core 2 GlcNAc-T activity by butyrate (in words): blocked induction of core 2 GlcNAc-T activity
[7]
  IC50: 1 to 10 µM

## CNCCNS(=O)(=O)c1cccc2cnccc12 [H-8]
Core 2 GlcNAc-T [1]; [11]
  effect on induction of core 2 GlcNAc-T activity by butyrate (in words): blocked induction of core 2 GlcNAc-T activity
[8]
  IC50: 1 to 10 µM

## NC(N)=NCCNS(=O)(=O)c1cccc2cnccc12 [H-1004]
Core 2 GlcNAc-T [1]
  effect on induction of core 2 GlcNAc-T activity by butyrate (in words): had no effect

## CC1=C(/C=C/C(C)=C/C=C/C(C)=C/C(=O)O)C(C)(C)CCC1 [RA, all-trans-retinoic acid]
CHO cells [2]
  Doubling Time: 13 h
Core 2 GlcNAc-T [1]
  effect on core 2 GlcNAc-T activity in CHO cells (in words): had no effect on activity
Core 2 GlcNAc-T [1]; listed as retinoic acid
  effect on core 2 GlcNAc-T activity in CHO cells (in words): Neither cholera toxin alone, retinoic acid, DMSO nor PMA had any effect on core 2 GlcNAc-T activity

## CCCCCCCCCCCCCC(=O)O[C@@H]1[C@@H](C)[C@@]2(O)[C@@H](C=C(CO)C[C@]3(O)C(=O)C(C)=C[C@@H]23)[C@@H]2C(C)(C)[C@]12OC(C)=O [TPA, phorbol 12-myristate 13-acetate]
CHO cells [2]
  Doubling Time: 13 h
Core 2 GlcNAc-T [1]; listed as PMA
  effect on core 2 GlcNAc-T activity in CHO cells (in words): Neither cholera toxin alone, retinoic acid, DMSO nor PMA had any effect on core 2 GlcNAc-T activity

## CC(=O)N[C@H]1[C@@H](OP(=O)(O)OP(=O)(O)OC[C@H]2O[C@@H](n3ccc(=O)[nH]c3=O)[C@H](O)[C@@H]2O)O[C@H](CO)[C@@H](O)[C@@H]1O [UDP-GlcNAc]
Core 2 GlcNAc-T [5]
  fold by which substrate Km for β1-4Gal-T is lower than for core 2 GlcNAc-T: 7 fold
[9]
  UDP-GlcNAc remaining intact: 93-95%
Core 2 GlcNAc-T [6]
  Km: 500 µM

## CCCC(=O)[O-].[Na+] [butyrate, sodium butyrate]
CHO cells [2]
  Doubling Time: 25 to 27 h and 24 h
  effect on cell proliferation (in words): reductions in cell growth rates; also recorded: slowed cell proliferation
CHO cells [3]
  changes in cell morphology (in words): induced changes in cell morphology
cAMP
  delay of core 2 GlcNAc-T peaks after peaks in cytosolic cAMP: 8 to 12 h
  effect on intracellular/cytosolic cAMP levels (in words): butyrate treatment increases intracellular cAMP levels; also recorded: elevated cytosolic cAMP levels
  time by which cAMP elevation preceded induction of core 2 GlcNAc-T activity: approximately 8 h
  time of first peak of cAMP: 12 h
  time of second peak of cAMP: 72 h
Core 2 GlcNAc-T [10]
  core 2 GlcNAc-T activity, kinase +: 264.9
  core 2 GlcNAc-T activity, kinase -: 267.4
Core 2 GlcNAc-T [1]
  effect on core 2 GlcNAc-T activity in CHO cells (in words): only butyrate induced core 2 GlcNAc-T activity
  second peak of core 2 GlcNAc-T activity, higher than the 24 hours peak: approximately 45%
  time of first peak (maximum) of core 2 GlcNAc-T activity: 24 h
  time of second peak of core 2 GlcNAc-T activity: 84 h
Core 2 GlcNAc-T [1]; cho cells, 2000 µM
  core 2 GlcNAc-T activity greater than controls: 10-20 times
Core 2 GlcNAc-T [1]; cho cells, 24 h
  fold increase in core 2 GlcNAc-T activity: 16 fold
β1-3Gal-T; cho cells, 24 h, 2000 µM
  increase in β1-3 Gal-T activity: approximately 2 fold
  increase in β1-3Gal-T activity: 2-3 times
In vitro
  viability at 2000 µM: 90 to 95%

## CCCC(=O)Nc1ncnc2c1ncn2[C@@H]1O[C@@H]2COP(=O)(O)O[C@H]2[C@H]1OC(=O)CCC [dibutyryl cAMP]
Core 2 GlcNAc-T [1]
  effect on core 2 GlcNAc-T activity in CHO cells (in words): failed to induce enzyme activity

## cholera toxin
CHO cells [2]
  effect on cell proliferation (in words): reductions in cell growth rates; also recorded: slowed cell proliferation
CHO cells [3]
  changes in cell morphology (in words): induced changes in cell morphology
cAMP
  effect on intracellular/cytosolic cAMP levels (in words): enhanced both cytosolic cAMP concentrations and core 2 GlcNAc-T activity compared to butyrate-treatment alone
Core 2 GlcNAc-T [1]
  additional increase in core 2 GlcNAc-T activity in butyrate-treated cells: 2 fold
  effect on core 2 GlcNAc-T activity of butyrate-treated cells (in words): enhanced both cytosolic cAMP concentrations and core 2 GlcNAc-T activity compared to butyrate-treatment alone
  enhancement of core 2 GlcNAc-T activity in butyrate-treated cells: 80%
